# Assay results from US4360595A, “Fermentation process for producing anandimycin” (Bristol-Myers Company, priority 1981, dated 1982).
# System: P-388 leukemia
# Test: transplantable mouse tumor P-388 leukemia
# Format: in vivo, mouse (CDF1 female mice)
# Details: for MST: control 9.0 days; for Effect MST % T/C: ≥ 125 significant
# Protocol: Anandimycin was also tested against the transplantable mouse tumor P-388 leukemia. The methodology used generally followed the protocols of the National Cancer Institute (Cancer Chemotherapy Rep., Part 3, 3, 1-103 (1972). The essential experimental details are given at the bottom of the following table. Two different dose regimens are tested: single dose on day 1 and three doses given on days 1, 5 and 9. The optimal dose was 64 mg/kg. single dose.
# Tumor inoculum: 10^6 ascites cells implanted
# Host: CDF1 .female. mice
# Evaluation: MST = median survival
# Effect: % T/C = (MST treated/MST control) ×
# Criteria: % T/C ≥ 125 considered significant antitumor
# Tox: […] 4/6 mice alive on day 5
# AWC = average weight gain (treatedcontrol) in grams (on day 4)
structure (smiles),measurement,setting,value
C=Cc1cc(OC)c2c(c1)c(=O)oc1c2cc(OC)c2c(O)ccc(C3OC(C(C)O)C(O)C3O)c21 (stereo not drawn) [Anandimycin],AWC Day 4,"d.1,5&9, IP, 0.5 mg/kg/inj.",-0.1 gm.
same,Survivors Day 5(30),"d.1,5&9, IP, 0.5 mg/kg/inj.",6/6
same,MST,"d.1,5&9, IP, 0.5 mg/kg/inj.",9.0 days
same,Effect MST % T/C,"d.1,5&9, IP, 0.5 mg/kg/inj.",100%
same,AWC Day 4,"d.1,5&9, IP, 1 mg/kg/inj.",+0.6 gm.
same,Survivors Day 5(30),"d.1,5&9, IP, 1 mg/kg/inj.",6/6
same,MST,"d.1,5&9, IP, 1 mg/kg/inj.",9.0 days
same,Effect MST % T/C,"d.1,5&9, IP, 1 mg/kg/inj.",100%
same,AWC Day 4,"d.1,5&9, IP, 2 mg/kg/inj.",+0.2 gm.
same,Survivors Day 5(30),"d.1,5&9, IP, 2 mg/kg/inj.",6/6
same,MST,"d.1,5&9, IP, 2 mg/kg/inj.",9.0 days
same,Effect MST % T/C,"d.1,5&9, IP, 2 mg/kg/inj.",100%
same,AWC Day 4,"d.1,5&9, IP, 4 mg/kg/inj.",+0.7 gm.
same,Survivors Day 5(30),"d.1,5&9, IP, 4 mg/kg/inj.",6/6
same,MST,"d.1,5&9, IP, 4 mg/kg/inj.",10.5 days
same,Effect MST % T/C,"d.1,5&9, IP, 4 mg/kg/inj.",117%
same,AWC Day 4,"d.1,5&9, IP, 8 mg/kg/inj.",+0.2 gm.
same,Survivors Day 5(30),"d.1,5&9, IP, 8 mg/kg/inj.",6/6
same,MST,"d.1,5&9, IP, 8 mg/kg/inj.",13.5 days
same,Effect MST % T/C,"d.1,5&9, IP, 8 mg/kg/inj.",150%
same,AWC Day 4,"d.1,5&9, IP, 16 mg/kg/inj.",0 gm.
same,Survivors Day 5(30),"d.1,5&9, IP, 16 mg/kg/inj.",5/5
same,MST,"d.1,5&9, IP, 16 mg/kg/inj.",13.0 days
same,Effect MST % T/C,"d.1,5&9, IP, 16 mg/kg/inj.",144%
same,AWC Day 4,"d.1, IP, 0.5 mg/kg/inj.",-0.1 gm.
same,Survivors Day 5(30),"d.1, IP, 0.5 mg/kg/inj.",6/6
same,MST,"d.1, IP, 0.5 mg/kg/inj.",9.0 days
same,Effect MST % T/C,"d.1, IP, 0.5 mg/kg/inj.",100%
same,AWC Day 4,"d.1, IP, 1 mg/kg/inj.",-0.1 gm.
same,Survivors Day 5(30),"d.1, IP, 1 mg/kg/inj.",6/6
same,MST,"d.1, IP, 1 mg/kg/inj.",9.0 days
same,Effect MST % T/C,"d.1, IP, 1 mg/kg/inj.",100%
same,AWC Day 4,"d.1, IP, 2 mg/kg/inj.",-0.2 gm.
same,Survivors Day 5(30),"d.1, IP, 2 mg/kg/inj.",5/5
same,MST,"d.1, IP, 2 mg/kg/inj.",10.0 days
same,Effect MST % T/C,"d.1, IP, 2 mg/kg/inj.",111%
same,AWC Day 4,"d.1, IP, 4 mg/kg/inj.",-0.9 gm.
same,Survivors Day 5(30),"d.1, IP, 4 mg/kg/inj.",6/6
same,MST,"d.1, IP, 4 mg/kg/inj.",10.0 days
same,Effect MST % T/C,"d.1, IP, 4 mg/kg/inj.",111%
same,AWC Day 4,"d.1, IP, 8 mg/kg/inj.",-0.2 gm.
same,Survivors Day 5(30),"d.1, IP, 8 mg/kg/inj.",6/6
same,MST,"d.1, IP, 8 mg/kg/inj.",11.5 days
same,Effect MST % T/C,"d.1, IP, 8 mg/kg/inj.",128%
same,AWC Day 4,"d.1, IP, 16 mg/kg/inj.",-0.6 gm.
same,Survivors Day 5(30),"d.1, IP, 16 mg/kg/inj.",6/6
same,MST,"d.1, IP, 16 mg/kg/inj.",11.0 days
same,Effect MST % T/C,"d.1, IP, 16 mg/kg/inj.",122%
same,AWC Day 4,"d.1, IP, 32 mg/kg/inj.",-0.6 gm.
same,Survivors Day 5(30),"d.1, IP, 32 mg/kg/inj.",6/6
same,MST,"d.1, IP, 32 mg/kg/inj.",13.0 days
same,Effect MST % T/C,"d.1, IP, 32 mg/kg/inj.",144%
same,AWC Day 4,"d.1, IP, 64 mg/kg/inj.",-0.3 gm.
same,Survivors Day 5(30),"d.1, IP, 64 mg/kg/inj.",6/6
same,MST,"d.1, IP, 64 mg/kg/inj.",14.5 days
same,Effect MST % T/C,"d.1, IP, 64 mg/kg/inj.",161%
same,optimal dose,single dose,64 mg/kg
